Data: paper PMC5380659, “Unique charge-dependent constraint on collagen recognition by integrin α10β1” (Matrix Biology, 2017)
Where a chain is given by its changes, count along the chain named. Entries after “also recorded” stand apart in the source; their conditions may differ.

Experiments:
R215Q α10 I domain = target: T1, R215Q α10 I domain (Homo sapiens, UniProt O75578, R237Q); assay: Concentration-dependent SPBA (KD) of α10-R215Q I domain; format: binding; conditions: SPBA concentration dependence; for Saturation / quality of binding, R215Q α10 I domain: up to 100 μg/ml; for KD, R215Q α10 I domain: I domain up to 100 μg/ml, Fig. 9C and D
T1 construct: made in house; host or cells: bacteria
T1 sequence (O75578 167-350 R237Q): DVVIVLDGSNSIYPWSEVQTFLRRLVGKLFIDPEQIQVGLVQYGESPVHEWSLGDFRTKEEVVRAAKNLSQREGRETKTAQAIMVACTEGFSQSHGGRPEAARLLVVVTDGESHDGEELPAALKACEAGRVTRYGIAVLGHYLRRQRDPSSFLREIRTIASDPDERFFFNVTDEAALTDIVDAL
Experimental: (§1) 96-well plates were prepared as for Fig. 1. A: binding to Toolkit II, B: binding to Toolkit III.
(§2) I domain adhesion was determined colorimetrically, as described, here termed solid phase binding assay (SPBA). Peptides were coated at 10 μg/ml for 1 h at 22 °C on Immulon-2 HB 96-well plates (Thermo Life Sciences, Basingstoke, UK), and blocked for 1 h with 200 μl of TBS containing 50 mg/ml bovine serum albumin. […] Wells were washed five times with 200 μl of adhesion buffer containing MgCl2 or EDTA, before adding 100 μl of adhesion buffer containing the anti-GST-HRP conjugate at 1:10,000 dilution for 1 h at room temperature. After washing, colour was developed using an ImmunoPure TMB Substrate Kit (Pierce) according to the manufacturer's instructions.

wild type α10 I domain = target: T2, wild type α10 I domain (Homo sapiens, UniProt O75578); assay: Concentration-dependent SPBA (KD) of wild-type α10 I domain; format: binding; conditions: SPBA concentration dependence; for Saturation / quality of binding, wild type α10 I domain: up to 100 μg/ml; for KD, wild type α10 I domain: I domain up to 100 μg/ml, Fig. 9C and D
T2 construct: Recombinant human α10 I domain-encoding plasmid (pGEX-2T-α10 I domain) was cloned using standard procedures; made in house; host or cells: bacteria (pGEX-2T plasmid; the Origami strain is stated only for α2 I domains)
T2 sequence (O75578 167-350 limits assumed): T1 sequence (O75578 167-350 R237Q) with Q71R
Experimental: as §1, §2

C2C12-α10β1 cells = assay: LDH-based SPBA of C2C12-α10β1 cell adhesion; set-up: species or system mouse; conditions: short THPs, 2 mM Mg^2 +, 1 h, Fig. 4B
Experimental: The mouse myoblast cell line, C2C12-α10β1 clone, expresses α10β1 as its sole collagen-binding integrin [16]. To investigate the binding of α10β1 to collagen in a cellular and whole integrin context, therefore, the adhesion of C2C12-α10β1 cells to Toolkits II and III was performed using two different approaches. First, SPBA was used, with lactate dehydrogenase to report the presence of adherent cells, after lysis, as described in Experimental. […] C2C12-α10B1 cells generally bound more prominently to those weaker peptides that supported just-observable binding of free I-domain. This may reflect avidity of the receptor-populated cell surface for the peptide-coated wells, or perhaps up-regulation of integrin affinity following receptor engagement. It is also possible that some cell binding reflects specific indirect interactions. For example, fibronectin, available either by intrinsic expression or from the serum supplement, binds well to II-44, and can also bind integrin αVβ3 [21].
Fig. 2 Binding of α10β1-transfected C2C12 cells to Collagen Toolkits. 96-well plates were coated with peptides as for Fig. 1, then C2C12-α10β1 cells (5 × 10^4 per well) were added and incubated for 1 h in the presence of either 2 mM MgCl2 or 2 mM EDTA as above. A: binding to Toolkit II. B: binding to Toolkit III.
The mouse myoblast cell line, C2C12, (control and transfectants, C2C12-α1β1, C2C12-α2β1, C2C12-α10β1 or C2C12-α11β1) was maintained in RPMI medium containing 10% fetal bovine serum, 2 mM glutamine, 100 IU/ml penicillin, 100 μg/ml streptomycin, and 2.5 μg/ml amphotericin. Cells were harvested by centrifugation, washed, and suspended at 0.5 × 10^6/ml in Tris-buffered saline supplemented with 5.5 mM glucose and either 2 mM EDTA or 2 mM MgCl2. SPBA was performed as follows: 100 μl of the cell suspension was added to peptide-coated wells [42] at 20 °C for 60 min. Cell adhesion was determined colorimetrically after lysis, using a lactate dehydrogenase (LDH)-based cell detection kit (Roche Diagnostics) according to the supplier's instructions.

α2β1 = tested on: α2β1; set-up: method as in 4 sources, ref [8], [10] = [8]; PMID 16326707; doi:10.1074/jbc.M509818200; 8 Raynal N. Hamaia S.W. Siljander P.R. Maddox B. Peachey A.R. Fernandez R. Foley L.J. Slatter D.A. Jarvis G.E. Farndale R.W. Use of synthetic peptides to locate novel integrin alpha2beta1-binding moti || [10]; PMID 16043429; doi:10.1074/jbc.M502431200; 10 Kim J.K. Xu Y. Xu X. Keene D.R. Gurusiddappa S. Liang X. Wary K.K. Hook M. A novel binding site in collagen type III for the integrins, alpha 1beta 1 and alpha 2beta 1 J. Biol. Chem. 280 2005 32512 ||| ref not given ||| ref [4] = [4]; PMID 19693543; doi:10.1007/s00441-009-0834-6; 4 Barczyk M. Carracedo S. Gullberg D. Integrins Cell Tissue Res. 339 1 2010 269 280 19693543 10.1007/s00441-009-0834-6 PMC2784866 ||| ref [12] = [12]; PMID 22654115; doi:10.1074/jbc.M112.353144; 12 Hamaia S.W. Pugh N. Raynal N. Nemoz B. Stone R. Gullberg D. Bihan D. Farndale R.W. Mapping of potent and specific binding motifs, GLOGEN and GVOGEA, for integrin alpha1beta1 using collagen toolkits; conditions: cited from earlier work; for Binding to integrin α2β1, previously described: ref not given

Substance | Saturation / quality of binding, R215Q α10 I domain (R215Q α10 I domain) | Saturation / quality of binding, wild type α10 I domain (wild type α10 I domain) | Adhesion of C2C12-α10β1 cells to short triple-helical peptides (C2C12-α10β1 cells) | Binding to integrin α2β1, previously described (α2β1) | KD, R215Q α10 I domain (R215Q α10 I domain) | KD, wild type α10 I domain (wild type α10 I domain) | Binding to α2β1 (α2β1; ref [8], [10])
GFOGER [THP containing GFOGER served as positive control, reference compound] | did not saturate at up to 100 μg/ml; also recorded: good ligand | did not saturate at up to 100 μg/ml; also recorded: good ligand | less well | good binding motifs |  |  | 
GLOGEN [short THP containing GLOGEN] | enhanced binding of R215Q to GROGER but not GLOGEN; also recorded: saturation binding | saturation binding | bound strongly | good binding motifs | ~10 µg/mL | ~10 µg/mL | 
GROGER [short triple-helical peptide containing GROGER] | enhanced binding; also recorded: bound quite well | bound poorly | absence of binding | good binding motifs | about 50 μg/ml | > 100 µg/mL | relatively good α2β1-binding motif
